# Article PMC11790914, “Chemogenomics for steroid hormone receptors (NR3)” (Communications Chemistry, 2025)
# Values joined by “and” are separate entries in the source; they are usually repeats but may differ in a detail not shown here. Equal values may be shown once. “Also recorded” adds a separate entry of the source.
# Legend:
# ABL1 = biological target: T1, ABL1 (Homo sapiens, UniProt P00519); test: Liability panel screening by DSF: ABL1; format: binding; settings: DSF, 20 µM, n=2; read-out: Mean ΔTM ABL1
# T1 construct: made in house
# T1 sequence (P00519 whole entry, species assumed): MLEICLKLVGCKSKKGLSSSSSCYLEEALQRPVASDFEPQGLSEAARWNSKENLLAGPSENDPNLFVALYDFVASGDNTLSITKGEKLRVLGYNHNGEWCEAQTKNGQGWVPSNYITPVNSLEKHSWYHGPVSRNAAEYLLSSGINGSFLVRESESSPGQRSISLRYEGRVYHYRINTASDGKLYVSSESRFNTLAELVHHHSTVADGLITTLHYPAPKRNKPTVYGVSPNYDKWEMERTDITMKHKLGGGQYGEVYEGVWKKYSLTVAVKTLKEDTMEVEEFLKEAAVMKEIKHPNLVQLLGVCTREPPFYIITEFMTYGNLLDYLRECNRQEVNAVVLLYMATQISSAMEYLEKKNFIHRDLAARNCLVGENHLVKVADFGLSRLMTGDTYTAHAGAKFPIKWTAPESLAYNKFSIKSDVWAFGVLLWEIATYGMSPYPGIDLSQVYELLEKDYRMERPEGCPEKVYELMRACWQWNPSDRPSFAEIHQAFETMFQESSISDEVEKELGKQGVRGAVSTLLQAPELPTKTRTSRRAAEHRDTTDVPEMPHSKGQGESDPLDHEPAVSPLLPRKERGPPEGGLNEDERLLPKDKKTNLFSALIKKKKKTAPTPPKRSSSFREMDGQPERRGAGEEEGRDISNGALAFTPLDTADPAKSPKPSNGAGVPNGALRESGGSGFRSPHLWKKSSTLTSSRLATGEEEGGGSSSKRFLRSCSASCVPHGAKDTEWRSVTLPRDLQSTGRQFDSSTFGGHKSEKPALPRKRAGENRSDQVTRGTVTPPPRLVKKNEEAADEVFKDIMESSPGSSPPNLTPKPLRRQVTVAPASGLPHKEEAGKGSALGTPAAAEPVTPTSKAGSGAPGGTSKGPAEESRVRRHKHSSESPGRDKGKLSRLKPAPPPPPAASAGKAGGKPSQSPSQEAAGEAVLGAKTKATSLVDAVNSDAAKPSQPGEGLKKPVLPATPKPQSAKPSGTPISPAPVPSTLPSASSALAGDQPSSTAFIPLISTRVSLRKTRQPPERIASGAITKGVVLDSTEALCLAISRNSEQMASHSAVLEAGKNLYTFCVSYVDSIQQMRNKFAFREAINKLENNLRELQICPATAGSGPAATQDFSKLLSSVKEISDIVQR
# Method in brief: (§1)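 Recombinant protein at 2 µM in 10 mM HEPES pH 7.5 with 500 mM NaCl was mixed with SYPRO Orange (1:1000) and heated at 3 °C/min up to 85 °C. Tm was taken as the Boltzmann-fit inflection point. Shifts are ∆Tm in K from technical duplicates.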
# AURKA = biological target: T2, AURKA (Homo sapiens, UniProt O14965); test: Liability panel screening by DSF: AURKA; format: binding; settings: DSF, 20 µM, n=2; read-out: Mean ΔTM AURKA
# T2 construct: made in house
# T2 sequence (O14965 1-403): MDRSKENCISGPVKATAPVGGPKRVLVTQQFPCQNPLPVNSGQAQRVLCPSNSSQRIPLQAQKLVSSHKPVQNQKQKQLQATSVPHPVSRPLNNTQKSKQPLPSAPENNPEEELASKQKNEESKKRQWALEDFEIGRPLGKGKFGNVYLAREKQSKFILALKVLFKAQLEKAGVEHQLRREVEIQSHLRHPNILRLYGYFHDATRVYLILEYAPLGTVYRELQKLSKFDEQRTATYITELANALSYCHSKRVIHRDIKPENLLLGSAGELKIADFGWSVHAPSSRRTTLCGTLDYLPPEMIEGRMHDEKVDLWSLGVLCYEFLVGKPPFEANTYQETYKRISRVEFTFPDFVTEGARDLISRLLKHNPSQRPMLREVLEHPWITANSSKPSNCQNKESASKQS
# Method in brief: as §1
# CDK2 = biological target: T3, CDK2 (Homo sapiens, UniProt P24941); test: Liability panel screening by DSF: CDK2; format: binding; settings: DSF, 20 µM, n=2; read-out: Mean ΔTM CDK2
# T3 construct: made in house
# Method in brief: as §1
# FGFR3 = biological target: T4, FGFR3 (Homo sapiens, UniProt P22607); test: Liability panel screening by DSF: FGFR3; format: binding; settings: DSF, 20 µM, n=2; read-out: Mean ΔTM FGFR3
# T4 construct: made in house
# T4 sequence (P22607 23-806, species assumed): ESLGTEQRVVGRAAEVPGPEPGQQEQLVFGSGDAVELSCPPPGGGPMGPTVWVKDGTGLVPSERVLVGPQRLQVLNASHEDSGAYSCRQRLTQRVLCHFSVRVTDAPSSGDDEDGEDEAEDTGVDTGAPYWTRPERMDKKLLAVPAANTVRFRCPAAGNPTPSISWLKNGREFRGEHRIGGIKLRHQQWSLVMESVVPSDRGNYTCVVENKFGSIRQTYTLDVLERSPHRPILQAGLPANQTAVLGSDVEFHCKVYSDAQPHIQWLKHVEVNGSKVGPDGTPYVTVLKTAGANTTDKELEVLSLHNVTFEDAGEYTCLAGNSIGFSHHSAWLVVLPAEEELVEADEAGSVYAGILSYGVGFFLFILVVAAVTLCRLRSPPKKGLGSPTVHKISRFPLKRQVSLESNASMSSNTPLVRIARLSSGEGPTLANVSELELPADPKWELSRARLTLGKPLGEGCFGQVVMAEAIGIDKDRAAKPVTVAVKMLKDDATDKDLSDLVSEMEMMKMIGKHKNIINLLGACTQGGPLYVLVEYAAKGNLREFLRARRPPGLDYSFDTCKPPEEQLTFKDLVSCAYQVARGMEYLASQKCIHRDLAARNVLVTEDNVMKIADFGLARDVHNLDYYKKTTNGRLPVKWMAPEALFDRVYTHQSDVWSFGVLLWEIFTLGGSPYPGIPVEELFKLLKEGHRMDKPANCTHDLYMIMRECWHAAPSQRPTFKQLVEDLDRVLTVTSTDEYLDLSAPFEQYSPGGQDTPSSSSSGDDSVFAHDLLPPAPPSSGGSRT
# Method in brief: as §1
# BRD4 = biological target: T5, BRD4 (Homo sapiens, UniProt O60885); test: Liability panel screening by DSF: BRD4; format: binding; settings: DSF, 20 µM, n=2; read-out: Mean ΔTM BRD4
# T5 construct: This panel comprised ten highly ligandable kinases and bromodomains; made in house
# Method in brief: as §1
# CSNK1D = biological target: T6, CSNK1D (Homo sapiens, UniProt P48730); test: Liability panel screening by DSF: CSNK1D; format: binding; settings: DSF, 20 µM, n=2; read-out: Mean ΔTM CSNK1D
# T6 construct: made in house
# T6 sequence (P48730 whole entry, species assumed): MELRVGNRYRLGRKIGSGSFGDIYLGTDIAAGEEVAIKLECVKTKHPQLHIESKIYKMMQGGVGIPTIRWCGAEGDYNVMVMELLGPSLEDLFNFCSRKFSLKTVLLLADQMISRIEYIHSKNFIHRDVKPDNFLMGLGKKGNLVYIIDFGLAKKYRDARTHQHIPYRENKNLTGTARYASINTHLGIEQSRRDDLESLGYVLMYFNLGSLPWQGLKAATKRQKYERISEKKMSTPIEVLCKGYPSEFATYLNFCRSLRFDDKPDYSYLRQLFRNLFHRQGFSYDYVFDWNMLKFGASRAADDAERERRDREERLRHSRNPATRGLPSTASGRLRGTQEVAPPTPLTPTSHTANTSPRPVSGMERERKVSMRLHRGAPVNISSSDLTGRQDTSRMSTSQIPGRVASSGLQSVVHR
# Method in brief: as §1
# MAPK1 = biological target: T7, MAPK1 (Homo sapiens, UniProt P28482); test: Liability panel screening by DSF: MAPK1; format: binding; settings: DSF, 20 µM, n=2; read-out: Mean ΔTM MAPK1
# T7 construct: made in house
# T7 sequence (P28482 whole entry, species assumed): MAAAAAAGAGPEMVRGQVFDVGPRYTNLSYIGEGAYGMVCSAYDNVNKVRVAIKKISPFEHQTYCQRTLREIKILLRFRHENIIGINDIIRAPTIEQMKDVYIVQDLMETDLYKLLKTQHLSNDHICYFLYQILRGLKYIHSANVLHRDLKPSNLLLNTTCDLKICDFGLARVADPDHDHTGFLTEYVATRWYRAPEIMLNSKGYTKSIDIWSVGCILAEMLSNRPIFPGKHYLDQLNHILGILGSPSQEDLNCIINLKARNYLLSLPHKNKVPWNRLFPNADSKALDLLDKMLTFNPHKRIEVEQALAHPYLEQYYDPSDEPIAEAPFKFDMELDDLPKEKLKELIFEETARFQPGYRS
# Method in brief: as §1
# TRIM24 = biological target: T8, TRIM24 (Homo sapiens, UniProt O15164); test: Liability panel screening by DSF: TRIM24; format: binding; settings: DSF, 20 µM, n=2; read-out: Mean ΔTM TRIM24
# T8 construct: This panel comprised ten highly ligandable kinases and bromodomains; made in house
# T8 sequence (O15164 899-1004 limits assumed): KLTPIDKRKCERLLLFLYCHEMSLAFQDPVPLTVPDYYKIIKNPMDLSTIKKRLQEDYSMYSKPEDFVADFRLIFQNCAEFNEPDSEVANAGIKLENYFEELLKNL
# Method in brief: as §1
# [1] = system: NF-κB activity in HEK293 NF-κB reporter cells; test: NF-kB activity assay (GFP reporter, ionomycin/PMA); format: cell-based; settings: n=3
# Method in brief: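 Reporter readout: GFP-expressing cells normalized to confluence, imaged every 90 min across 24 h after ionomycin (100 ng/mL)/PMA (10 ng/mL) stimulation of HEK293 cells pre-treated 4 h with compound (0.1% DMSO); triplicate independent experiments.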
# [2] = system: ATF6 activity in Hela ATF6 reporter cells; test: Endoplasmic reticulum stress assay (ATF6 Renilla luciferase reporter, tunicamycin); format: cell-based
# Method in brief: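 ER stress was induced by 100 ng/mL tunicamycin added 4 h after compound (0.1% DMSO) to HeLa ATF6 reporter cells. After 18 h more, Renilla luciferase signal was read and expressed relative to DMSO control, n=5 biological replicates.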
# HEK293T cells [3] = test: Cytotoxicity: metabolic activity (WST-8 / CCK-8 assay); settings: HEK293T, 24 h, WST-8, normalized to 0.1% DMSO, single replicates
# Method: (§2) Cells were incubated with the test compounds at the indicated concentrations solubilized with 0.1% DMSO for 24 h. Growth-rate was determined based on the change in confluence over 24 h normalized to the change in confluence of cells treated with the 0.1% DMSO control (n = 10). Metabolic activity was determined with a water-soluble tetrazolium-8 (WST-8) assay (n = 8) after 24 h treatment. Apoptotic cells were detected with a fluorogenic DNA dye coupled to the caspase-3/7 recognition sequence (DEVD) after 24 h treatment and the apoptotic cell count was normalized to 0.1% DMSO treated cells (n = 6).
# (§3) HEK293T cells (German Collection of Microorganisms and Cell Culture GmbH, DSMZ; #ACC305) were cultured in DMEM high glucose, supplemented with 10% fetal calf serum (FCS), sodium pyruvate (1 mM), penicillin (100 µ/mL) and streptomycin (100 µg/mL) at 37 °C and 5% (v/v) CO2, and seeded in pre-coated (10 µg/mL collagen G solution (Merck KgaA; #L7213) for 30 min at 37 °C) 96-well plates (2 × 10^5 cells per well). After 24 h, the cells were treated with the respective NR3 CG compound candidate at the recommended concentration, bexarotene (100 µM) or doxorubicin (30 µM) as positive controls in DMEM high glucose supplemented with 0.1% FCS, penicillin (100 µ/mL), streptomycin (100 µg/mL) and 0.1% DMSO, or 0.1% DMSO alone as an untreated control. Each sample was prepared in at least four biologically independent replicates. […] Thereafter, the medium was aspirated and the cells were incubated for 3 h with 90 µL DMEM high glucose supplemented with 0.2% FCS, penicillin (100 µ/mL) and streptomycin (100 µg/mL) and additionally containing 10 µL Cell Counting Kit 8 solution (CCK-8; MedChemExpress, Monmouth Junction, New York, USA; #HY-K0301), and absorbance was measured at 1 h, 2 h and 3 h of incubation at 450 nm on a Tecan Spark Cyto to assess metabolic activity of the cells. Before drug administration, after the first medium exchange, 24 h after drug administration, and after fluorescence imaging cell confluence was assessed using the Tecan Spark Cyto, to account for changes in cell confluence due to drug administration and cell handling. Compound effects on cell confluence, apoptosis, metabolic activity and necrosis were normalized to the vehicle control of each biological replicate individually.
# HEK293T cells [4] = test: Cytotoxicity: growth-rate (change in confluence over 24 h); settings: normalized to 0.1% DMSO control, single replicates (n=1...)
# HEK293T cells [5] = test: Cytotoxicity: apoptosis induction (caspase-3/7 DEVD fluorogenic DNA dye); settings: HEK293T, 24 h, apoptotic cell count normalized to 0.1% DMSO, single replicates
# Method: as §2, §3
structure (smiles),measurement,setting,value
CC/C(=C(/CC)c1ccc(O)cc1)c1ccc(O)cc1 [Diethylstilbestrol],ΔTm at 20 µM,ABL1,-0.96 °C
same,ΔTm at 20 µM,AURKA,-1.78 °C
same,ΔTm at 20 µM,CDK2,-5.57 °C
same,ΔTm at 20 µM,FGFR3,-8.29 °C
same,ΔTm at 20 µM,BRD4,-4.78 °C
same,ΔTm at 20 µM,CSNK1D,-0.81 °C
same,ΔTm at 20 µM,MAPK1,-12.2 °C
same,ΔTm at 20 µM,TRIM24,1.49 °C
same,Mean NFκB response,"[1]; 0.3 µM, 1,5 h",2313.08 GFP+-cells/confluence ∙ 1000
same,Mean NFκB response,"[1]; 0.3 µM, 4,5 h",2949.70 GFP+-cells/confluence ∙ 1000
same,Mean NFκB response,"[1]; 0.3 µM, 7,5 h",7538.46 GFP+-cells/confluence ∙ 1000
same,Mean NFκB response,"[1]; 0.3 µM, 10,5 h",18701.55 GFP+-cells/confluence ∙ 1000
same,Mean NFκB response,"[1]; 0.3 µM, 13,5 h",27206.00 GFP+-cells/confluence ∙ 1000
same,Mean NFκB response,"[1]; 0.3 µM, 16,6 h",33288.00 GFP+-cells/confluence ∙ 1000
same,Mean NFκB response,"[1]; 0.3 µM, 19,5 h",37133.33 GFP+-cells/confluence ∙ 1000
same,Mean NFκB response,"[1]; 0.3 µM, 22,5 h",40576.67 GFP+-cells/confluence ∙ 1000
same,Mean NFκB response,"[1]; 0.3 µM, 3 h",2350.33 GFP+-cells/confluence ∙ 1000
same,Mean NFκB response,"[1]; 0.3 µM, 6 h",4223.97 GFP+-cells/confluence ∙ 1000
same,Mean NFκB response,"[1]; 0.3 µM, 9 h",13522.53 GFP+-cells/confluence ∙ 1000
same,Mean NFκB response,"[1]; 0.3 µM, 12 h",23340.33 GFP+-cells/confluence ∙ 1000
same,Mean NFκB response,"[1]; 0.3 µM, 15 h",30431.00 GFP+-cells/confluence ∙ 1000
same,Mean NFκB response,"[1]; 0.3 µM, 18 h",35400.00 GFP+-cells/confluence ∙ 1000
same,Mean NFκB response,"[1]; 0.3 µM, 21 h",39313.33 GFP+-cells/confluence ∙ 1000
same,Mean NFκB response,"[1]; 0.3 µM, 24 h",41536.67 GFP+-cells/confluence ∙ 1000
same,Mean NFκB response,"[1]; 3 µM, 1,5 h",2624.20 GFP+-cells/confluence ∙ 1000
same,Mean NFκB response,"[1]; 3 µM, 4,5 h",2942.05 GFP+-cells/confluence ∙ 1000
same,Mean NFκB response,"[1]; 3 µM, 7,5 h",5380.00 GFP+-cells/confluence ∙ 1000
same,Mean NFκB response,"[1]; 3 µM, 10,5 h",14690.00 GFP+-cells/confluence ∙ 1000
same,Mean NFκB response,"[1]; 3 µM, 13,5 h",22563.33 GFP+-cells/confluence ∙ 1000
same,Mean NFκB response,"[1]; 3 µM, 16,6 h",28276.67 GFP+-cells/confluence ∙ 1000
same,Mean NFκB response,"[1]; 3 µM, 19,5 h",33253.33 GFP+-cells/confluence ∙ 1000
same,Mean NFκB response,"[1]; 3 µM, 22,5 h",36776.67 GFP+-cells/confluence ∙ 1000
same,Mean NFκB response,"[1]; 3 µM, 3 h",2684.18 GFP+-cells/confluence ∙ 1000
same,Mean NFκB response,"[1]; 3 µM, 6 h",3410.00 GFP+-cells/confluence ∙ 1000
same,Mean NFκB response,"[1]; 3 µM, 9 h",9373.33 GFP+-cells/confluence ∙ 1000
same,Mean NFκB response,"[1]; 3 µM, 12 h",19050.00 GFP+-cells/confluence ∙ 1000
same,Mean NFκB response,"[1]; 3 µM, 15 h",25776.67 GFP+-cells/confluence ∙ 1000
same,Mean NFκB response,"[1]; 3 µM, 18 h",30966.67 GFP+-cells/confluence ∙ 1000
same,Mean NFκB response,"[1]; 3 µM, 21 h",34670.00 GFP+-cells/confluence ∙ 1000
same,Mean NFκB response,"[1]; 3 µM, 24 h",38090.00 GFP+-cells/confluence ∙ 1000
same,ATF6 activity (tunicamycin-induced endoplasmic reticulum stress),"[2]; Hela ATF6 reporter cells, tunicamycin 100 ng/mL, 18 h, compounds at recommended concentrations, n = 5",lacked this effect; also recorded: failed to reduce ATF6 activity
same,activity at 0.3 µM,"[2]; Homo sapiens, HeLa, 0.3 µM, single replicates n=1 to n=5, read-out: ER stress [rel. ATF6 activity]",98%
same,activity at 3 µM,"[2]; Homo sapiens, HeLa, 3 µM, single replicates n=1 to n=5, read-out: ER stress [rel. ATF6 activity]",98% and 101%
same,Metabolic activity [MA],HEK293T cells [3]; 0.3 µM,1.04 (3×) and 0.90 and 0.95 and 1.03 and 0.96 and 1.14
same,Metabolic activity [MA],HEK293T cells [3]; 3 µM,0.90 and 0.94 and 1.10 and 1.00 (2×) and 0.60 and 0.78
same,Growth rate [GR],HEK293T cells [4]; 0.3 µM,0.65 and 4.06 and 0.84 and 0.92 and 1.28 and 1.00 and 0.79 and 1.42 and 0.91 and 9.54
same,Growth rate [GR],HEK293T cells [4]; 3 µM,reduced the growth-rate and -0.21 and 0.65 and -0.29 and 0.04 and 0.36 and 0.21 and 0.28 and 1.17 and 0.46 and -0.41
same,Apoptosis induction [AI],HEK293T cells [5]; 0.3 µM,0.86 and 1.37 (2×) and 0.83 and 1.54 and 0.77
same,Apoptosis induction [AI],HEK293T cells [5]; 3 µM,0.65 and 0.97 and 0.69 and 0.85 and 1.67 and 1.65
